Results taken from US4735953A, “Pharmaceutical preparation for learning stimulation and memory improvement” (priority 1986, dated 1988).

How the values were obtained:
[1] = tested on: learning ability of rats in a shuttle chamber; experiment: Active avoidance learning in a shuttle chamber, rats; type: in vivo, rat
[2] = tested on: learning ability of rats preliminarily sorted out for poor learning ability; experiment: Active avoidance learning in a shuttle chamber, rats sorted out for poor learning ability; type: in vivo, rat; settings: poorly learning rats
[3] = tested on: cerebral cortex of rabbits; experiment: Asymmetry factor by induced potential in the hearing zone of the cerebral cortex; type: in vivo, rabbit
Method in brief: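 Rabbits under nembutal (40 mg/kg) got symmetric electrodes in left and right temporal auditory cortex; clicks at 0.1-0.2 Hz, 5-80 dB via earphones evoked potentials. Preparations given subcutaneously as 0.5-1.5% aqueous solutions 20 min before recording; amplitudes measured and asymmetry factor computed from both hemispheres.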

[4] = tested on: mice; experiment: Acute toxicity, mice; type: in vivo, mouse; settings: single intraperitoneal
Procedure: The preparation according to the present invention was also tested for acute and chronic toxicity.

[5] = tested on: rats; experiment: Chronic toxicity, rats; type: in vivo, rat; settings: hypodermal, 3 months
Description: (§1) The chronic toxicity of the preparation was studied on three species of animals (rats, dogs, rabbits). In chronic tests on the above-mentioned animals the effect of a long-time hypodermal administration of the preparation according to the present invention on the general state and mass of animals, hemogram, cardio-vascular system, breathing central nervous system, functional state of kidneys, liver, thyroid gland was studied. […] The doses of the preparation employed in the experiments surpassed the required dose for a human being (per kilogram of bodymass) by 5-10 times.

[6] = tested on: rabbits; experiment: Chronic toxicity, rabbits; type: in vivo, rabbit; settings: hypodermal, 2 months
Description: as §1

[7] = tested on: dogs; experiment: Chronic toxicity, dogs; type: in vivo, dog; settings: hypodermal, 6 months
Description: as §1

[8] = tested on: patients; experiment: Tolerability and side effects in patients; type: in vivo, human
[9] = Solubility; type: physicochemical
[10] = rats, hypodermally 1 mg/kg 14 days
[11] = rats, hypodermally 5 mg/kg 14 days
[12] = rats, hypodermally 5 mg/kg after teaching

Cl.Nc1c2c(nc3c1CCC3)CCCC2.O [preparation of the invention, 9-amino-2,3,5,6,7,8-hexahydro-1H-cyclopenta(b)quinoline monohydrate hydrochloride]
learning capacity (in words) ([1]; rats, 1, 5 and 10 mg/kg): stimulate the learning capacity of rats | activity on learning versus comparison preparations (in words) ([1]; rats, Tables 1 and 2): substantially more active than 4-aminopyridine, physostigmine, pyracetam and lysyl-vasopressin | Number of combinations to reach the "learning criterion" in II teaching series (after 7 days) ([1]; rats, hypodermally 1 mg/kg): 4.2 + 0.8 | Number of combinations to reach the "learning criterion" in the I teaching series ([1]; rats, hypodermally 1 mg/kg): 14.2 + 1.2 | Number of non-taught animals in the group ([1]; rats, hypodermally 1 mg/kg): 3/20 | Percentage knowledge retention ([1]; rats, hypodermally 1 mg/kg): 70.4% | Number of combinations to reach the "learning criterion" in II teaching series (after 7 days) [1, 10]: 3.9 ± 0.8 | Number of combinations to reach the "learning criterion" in the I teaching series [1, 10]: 14.7 ± 1.9 | Number of non-taught animals in the group [1, 10]: 2/20 | Percentage knowledge retention [1, 10]: 72.7% | Number of combinations to reach the "learning criterion" in II teaching series (after 7 days) ([1]; rats, hypodermally 5 mg/kg): 2.6 + 0.3 | Number of combinations to reach the "learning criterion" in the I teaching series ([1]; rats, hypodermally 5 mg/kg): 11.5 + 0.9 | Number of non-taught animals in the group ([1]; rats, hypodermally 5 mg/kg): 1/20 | Percentage knowledge retention ([1]; rats, hypodermally 5 mg/kg): 77.4% | Number of combinations to reach the "learning criterion" in II teaching series (after 7 days) [1, 11]: 4.4 ± 0.5 | Number of combinations to reach the "learning criterion" in the I teaching series [1, 11]: 14.8 ± 2.0 | Number of non-taught animals in the group [1, 11]: 2/20 | Percentage knowledge retention [1, 11]: 69.3% | Number of combinations to reach the "learning criterion" in II teaching series (after 7 days) [1, 12]: 7.2 ± 0.8 | Number of combinations to reach the "learning criterion" in the I teaching series [1, 12]: 19.0 ± 1.2 | Number of non-taught animals in the group [1, 12]: 1/20 | Percentage knowledge retention [1, 12]: 60% | Number of combinations to reach the "learning criterion" in II teaching series (after 7 days) ([1]; rats, hypodermally 10 mg/kg): 3.0 + 0.5 | Number of combinations to reach the "learning criterion" in the I teaching series ([1]; rats, hypodermally 10 mg/kg): 12.9 + 0.8 | Number of non-taught animals in the group ([1]; rats, hypodermally 10 mg/kg): 0/15 | Percentage knowledge retention ([1]; rats, hypodermally 10 mg/kg): 76.7% | Number of combinations to reach the "learning criterion" in II teaching series (after 7 days) ([1]; rats, per os 5 mg/kg): 6.0 + 0.5 | Number of combinations to reach the "learning criterion" in the I teaching series ([1]; rats, per os 5 mg/kg): 12.8 + 1.7 | Number of non-taught animals in the group ([1]; rats, per os 5 mg/kg): 2/20 | Percentage knowledge retention ([1]; rats, per os 5 mg/kg): 60% | stimulating effect as compared to single-time administration (in words) ([1]; rats, two-weeks of administration): stimulating effect is also enhanced | % of knowledge retention ([2]; hypodermally 5 mg/kg): 64.3% | Number of combinations till appearance of "learning criterion", I teaching ([2]; hypodermally 5 mg/kg): 21 ± 2.7 | Number of combinations till appearance of "learning criterion", II-checking of retention of knowledge ([2]; hypodermally 5 mg/kg): 7.5 ± 0.9 | Number of untaught animals in the group ([2]; hypodermally 5 mg/kg): 3/20 | % of knowledge retention ([2]; hypodermally I mg/kg): 57.5% | Number of combinations till appearance of "learning criterion", I teaching ([2]; hypodermally I mg/kg): 24 ± 2.5 | Number of combinations till appearance of "learning criterion", II-checking of retention of knowledge ([2]; hypodermally I mg/kg): 10.2 ± 1.5 | Number of untaught animals in the group ([2]; hypodermally I mg/kg): 6/20 | asymmetry factor (in words) [3]: the asymmetry factor is also increased | LD50 [4]: 44 mg/kg | chronic toxicity [5]: no toxic effect | chronic toxicity [6]: no toxic effect | chronic toxicity [7]: no toxic effect | side effects, rare cases ([8]; eliminated by lowering dose or temporary suspension): reduction or elevation of arterial pressure and bradycardia | tolerability ([8]; patients): well-bearable by patients | side effects ([8]; signs of stimulation of m-cholinergic systems): nausea, diarrhea, less frequently--vomition | solubility in 95% ethanol ([9]; 95% ethanol): less soluble in a 95% ethanol | solubility in acetone ([9]; acetone): substantially insoluble | solubility in chloroform ([9]; chloroform): substantially insoluble | solubility in diluted solutions of acids ([9]; diluted solutions of acids): readily soluble in diluted solutions of acids | solubility in ether ([9]; ether): substantially insoluble | solubility in water ([9]; water): well soluble in water
